# Literature values as cited in patent publication US20090162858A1, “Orthogonal chemical inducer of dimerization” (priority 2007, published 2009).
# Test system: wild type Saccrharomyces cerevisiae
# Settings: [Game, 1975]
smiles,measurement,value
CN(Cc1cnc2nc(N)nc(N)c2n1)c1ccc(C(=O)N[C@@H](CCC(=O)O)C(=O)O)cc1 [Methotrexate],growth of wild type yeast,inhibits growth
"COc1cc(Cc2cnc(N)nc2N)cc(OC)c1OC [Trimethoprim, 2,4-diamino-5-(3,4,5-trimethoxybenzyl)pyrimidine]",growth of wild type yeast,does not
